Data as given in the supplement of paper PMC10307832.

The cell lines below were run with CC(C)(C)c1cc(NC(=O)Nc2ccc(-c3cn4c(n3)sc3cc(OCCN5CCOCC5)ccc34)cc2)no1 [Quizartinib] + C[C@]1(O)C[C@@H](c2nc(-c3ccc4ccc(-c5ccccc5)nc4c3)c3c(N)nccn32)C1 [Linsitinib] (partner 1 µM) (assay: relative viability (nuclei count vs DMSO), 5 days (fraction); higher = more cells survive). Settings: first compound 0.1 µM.
Outline: (§1)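 Medians of duplicate plates are given as relative viability. That measure is the nuclei count in treated wells divided by the count in vehicle wells. Counts were taken on 4× images of lung cancer cell lines in 1536-well plates, 5 days after pin-tool dosing the day after seeding with one drug alone or a fixed anchor-drug dose plus five library-drug doses (not always all listed) in √10 steps.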

Cell Line | relative viability
H3255 | 1.06
NCI-H1792 | 0.587
NCI-H647 | 1.45
Calu-6 | 0.883
LCLC-97TM1 | 0.21
NCI-H1703 | 0.231
LXF-289 | 0.92
LU99A | 0.417
NCI-H2023 | 0.574
NCI-H2228 | 0.624
NCI-H1437 | 0.706
NCI-H1395 | 1.22
NCI-H2009 | 1.18
HCC-366 | 0.554
EBC-1 | 0.948
LCLC-103H | 0.882
IA-LM | 0.679
A549 | 0.787
NCI-H1793 | 0.829
NCI-H441 | 0.479

Each cell line was assayed with COCC[n+]1c2c(n(Cc3cnccn3)c1C)C(=O)c1ccccc1C2=O [YM155] + COc1cccc2cc(-c3nc([C@H]4CC[C@H](C(=O)O)CC4)n4ncnc(N)c34)[nH]c12 [OSI-027] (partner 0.5 µM) in the same assay as above. Settings: first compound 0.002 µM.
Outline: as §1

Cell Line | relative viability
EKVX | 0.683
EPLC-272H | 0.287
NCI-H520 | 0.244
NCI-H1563 | 0.752
NCI-H650 | 0.503
RERF-LC-KJ | 0.663
HCC-827 | 0.678
NCI-H2087 | 0.492
SK-MES-1 | 0.582
NCI-H1651 | 0.685
UMC-11 | 0.465
NCI-H1355 | 0.386
H3255 | 0.577
NCI-H1792 | 0.743
NCI-H647 | 0.812
NCI-H1623 | 0.469
LCLC-97TM1 | 0.442

Cell Line | relative viability
LXF-289 | 0.723
LU99A | 0.285
NCI-H2023 | 0.442
NCI-H2228 | 0.612
NCI-H1437 | 0.838
NCI-H1395 | 0.579
NCI-H2009 | 0.567
HCC-366 | 1.08
LCLC-103H | 0.465
NCI-H2170 | 0.698
SW 900 | 0.544
NCI-H2342 | 0.555
NCI-H1793 | 0.242
NCI-H441 | 0.468
NCI-H1650 | 0.677
ChaGo-K-1 | 0.474
NCI-H522 | 0.752

Same assay, conditions: first compound 0.006325 µM

Cell Line | relative viability
EKVX | 0.759
EPLC-272H | 0.312
NCI-H520 | 0.242
NCI-H1563 | 0.754
NCI-H650 | 0.542
RERF-LC-KJ | 0.637
HCC-827 | 0.805
NCI-H2087 | 0.567
SK-MES-1 | 0.712
NCI-H1651 | 0.774
UMC-11 | 0.499
NCI-H1355 | 0.394
H3255 | 0.56
NCI-H1792 | 0.889
NCI-H647 | 0.736
NCI-H1623 | 0.456
LCLC-97TM1 | 0.539

Cell Line | relative viability
LXF-289 | 0.856
LU99A | 0.274
NCI-H2023 | 0.455
NCI-H2228 | 0.689
NCI-H1437 | 0.844
NCI-H1395 | 0.665
NCI-H2009 | 0.604
HCC-366 | 0.767
LCLC-103H | 0.436
NCI-H2170 | 0.785
SW 900 | 0.501
NCI-H2342 | 0.701
NCI-H1793 | 0.308
NCI-H441 | 0.496
NCI-H1650 | 0.783
ChaGo-K-1 | 0.536
NCI-H522 | 0.599

Same assay, conditions: first compound 0.02 µM

Cell Line | relative viability
EKVX | 0.683
EPLC-272H | 0.286
NCI-H520 | 0.29
NCI-H1563 | 0.652
NCI-H650 | 0.572
RERF-LC-KJ | 0.618
HCC-827 | 0.76
NCI-H2087 | 0.715
SK-MES-1 | 0.628
NCI-H1651 | 0.88
UMC-11 | 0.514
NCI-H1355 | 0.454
H3255 | 0.652
NCI-H1792 | 0.677
NCI-H647 | 0.762
NCI-H1623 | 0.471
LCLC-97TM1 | 0.548

Cell Line | relative viability
LXF-289 | 0.767
LU99A | 0.322
NCI-H2023 | 0.403
NCI-H2228 | 0.605
NCI-H1437 | 0.871
NCI-H1395 | 0.684
NCI-H2009 | 0.647
HCC-366 | 1.01
LCLC-103H | 0.408
NCI-H2170 | 0.695
SW 900 | 0.557
NCI-H2342 | 0.666
NCI-H1793 | 0.259
NCI-H441 | 0.537
NCI-H1650 | 0.594
ChaGo-K-1 | 0.549
NCI-H522 | 0.715

Same assay, conditions: first compound 0.06325 µM

Cell Line | relative viability
EKVX | 0.687
EPLC-272H | 0.251
NCI-H520 | 0.326
NCI-H1563 | 0.741
NCI-H650 | 0.52
RERF-LC-KJ | 0.633
HCC-827 | 0.842
NCI-H2087 | 0.618
SK-MES-1 | 0.19
NCI-H1651 | 0.585
UMC-11 | 0.465
NCI-H1355 | 0.47
H3255 | 0.569
NCI-H1792 | 0.83
NCI-H647 | 0.483
NCI-H1623 | 0.701
LCLC-97TM1 | 0.469

Cell Line | relative viability
LXF-289 | 0.785
LU99A | 0.28
NCI-H2023 | 0.195
NCI-H2228 | 0.713
NCI-H1437 | 0.783
NCI-H1395 | 0.705
NCI-H2009 | 0.382
HCC-366 | 0.945
LCLC-103H | 0.464
NCI-H2170 | 0.74
SW 900 | 0.478
NCI-H2342 | 0.623
NCI-H1793 | 0.269
NCI-H441 | 0.381
NCI-H1650 | 0.613
ChaGo-K-1 | 0.662
NCI-H522 | 0.753
